Laboratory results published in patent publication US12185720B2, “Chitooligosaccharides and methods for use in enhancing plant growth” (NOVOZYMES BIOAG A/S, priority 2011, dated 2025).
Entries after “also recorded” stand apart in the source; their conditions may differ.

Columns and labels:
Assay type in all cases: in vivo
[1] = tested on: Tomato seeds of hybrid tomato var. Royal Mounty; experiment: In vitro tomato seedling root growth bioassay (agar medium); details: for tomato seedling root length, compared to LCO: 22° C., FIG. 5
Description: Tomato seeds of hybrid tomato var. Royal Mounty were surface sterilized with 10% bleach solution for 10 minutes followed by 3 rinses with sterilized distilled water. Seeds were then dried in a laminar air flow hood for 3 hours. Seeds were then placed in petri-dishes on solidified agar medium containing various concentrations of different sources of the LCO illustrated in FIG. 1b (manufactured by Darmstadt, Germany and Grenoble, France) (also referred to in the examples as the “soybean LCO”) and the inventive CO illustrated in FIG. 2a (also referred to in the examples as the “pea CO” or “CO-V”). Seedling roots were measured by a hand ruler and root fresh weights were taken in a micro balance at day 7. Growth study was done in a growth chamber at 22° C.

[2] = tested on: tomato Var. Royal Mounty seeds; experiment: Tomato seedling root growth in petriplates (Example 11); details: 22° C.; 5 days in dark; FIG. 24
Description: In petriplate seed germination process, tomato Var. Royal Mounty seeds ware placed on moist filter paper soaked with 5 ml treatment solution. At 22° C. and after 5 days in dark, tomato seedling roots were measured for growth by WinRhizo system.

corn [3] = experiment: Corn field trials, foliar application, grain yield
[4] = tested on: Soybean seeds (Jung seed, var. 8168NRR); experiment: Treatment of soybean seed with various actives (greenhouse)
Description: Soybean seeds (Jung seed, var. 8168NRR) were treated with various active molecules. Seeds were treated with a liquid dose rate of 3 fl oz/100 lbs of seed. Seeds were allowed to dry for a 2 hours and planted in greenhouse in plastic pots containing 1:1 sand:perlite mixture. Seedlings were grown for 4 wks with occasional liquid fertilizer applications and then the plants were harvested. The central leaflet from the 2nd trifoliate (from down to top) was isolated and measured for surface area on a WinRhizo scanner. The rest of the plants were used for plant dry weight (DW).

[5] = tested on: Alfalfa (Medicago sativa) seeds; experiment: Alfalfa seed germination; details: 10^−8 M, FIG. 17
Description: Alfalfa (Medicago sativa) seeds were germinated in petriplates on moist filter paper containing Pea LCO and Pea CO treatment solutions (10^−8 M) and petriplates were kept in the dark at room temperature (22° C.).

Cotton seeds = experiment: Cotton seed treatment (greenhouse); details: seed treatment 10^−8 M, 3 fl oz/100 lbs of seed; 4 wks; FIG. 26
Description: Cotton seeds were treated with LCO and CO 10^−8 M treatment solutions at a dose rate of 3 fl oz/100 lbs of seed. Seeds were planted the very next day in plastic pots containing 1:1 sand:perlite mixture. Seeds were grown in greenhouse for 4 wks and then they were harvested.

Green Mung seeds = experiment: Seed germination in multiple crops: Green Mung; details: 24 h, dark, 22° C., FIG. 23
Description: Similar to the seed germination experiment mentioned above, seeds of different crops were placed on moist filter paper in petriplates containing 5 ml liquid in each. Petriplates with seeds were then kept in the dark at 22° C.

corn [6] = experiment: Corn field trials, seed application, grain yield

Q: Which “average root growth from all 3 concentrations, compared to LCOs” value ([1]; FIGS. 7 and 8) does the source give for `CC(=O)NC1C(O)OC(CO)C(OC2OC(CO)C(OC3OC(CO)C(OC4OC(CO)C(OC5OC(CO)C(O)C(O)C5N)C(O)C4NC(C)=O)C(O)C3NC(C)=O)C(O)C2NC(C)=O)C1O` (centres unmarked) [Pea CO] here?
A: Its value is “significantly better than LCOs”.

Q: And the “seedling root fresh weight, compared to LCO” value ([1]; all three levels of concentrations (10^−7, 10^−8 and 10^−9 M), day 7, FIG. 6)?
A: The value was “outperformed LCO”.

Q: And the “tomato seedling root length, compared to LCO” value ([1]; at 10^−7M and 10^−9M, day 7)?
A: Its value is “better”.

Q: What about the “tomato seedling root length, compared to LCO” value ([1]; at 10^−8M, day 7) of the same molecule?
A: The value was “equal”.

Q: And the “root fresh weight, compared to control seedlings” value ([1]; day 7, control water)?
A: The value was “significantly better than control seedlings”.

Q: What about the “root length, compared to control seedlings” value ([1]; day 7, control water) of the same molecule?
A: The value was “significantly better than control seedlings”.

Q: What about the “average seedling root length compared to LCO” value [2] of the same molecule?
A: Its value is “better than LCO but it was not significantly better”.

Q: What about the “tomato seedling root length as compared to water control” value [2] of the same molecule?
A: The value was “increased root length”.

Q: And the “YIELD, Response Increase” value (corn [3])?
A: Its value is 4.8 % of Control.

Q: And the “CO mean yield better than foliar LCO” value (corn [3]; CO minus LCO)?
A: Its value is 5.0 bu/A.

Q: What about the “higher yield increase than foliar LCO” value (corn [3]; CO minus LCO) of the same molecule?
A: The value was 2.6%.

Q: What about the “trials with a positive response, better than foliar LCO” value (corn [3]; CO minus LCO) of the same molecule?
A: The value was 18.8%.

Q: And the “yield enhancement as a foliar treatment (conclusion)” value (corn [3]; CO versus LCO)?
A: Its value is “at least twice better”.

Q: What about the “YIELD, Mean (N = 16)” value (corn [3]; four ounces per acre with glyphosate) of the same molecule?
A: The value was 201.8 bu/A.

Q: And the “YIELD, Response” value (corn [3]; over Control)?
A: The value was 9.2 bu/A.

Q: And the “Positive Yield Response” value (corn [3]; percent of the 16 trials)?
A: Its value is 93.8%.

Q: And the “plant dry weights (shoot, root or total plant biomass)” value ([4]; another experiment, vs soybean LCO, isoflavonoids, water, FIG. 13)?
A: The value was “highest plant dry weights”.

Q: What about the leaf surface area ([4]; seed treatment 3 fl oz/100 lbs of seed, 4 wks, central leaflet of 2nd trifoliate, vs control (water), FIG. 12) of the same molecule?
A: The leaf surface area was “significant increase”.

Q: And the “leaf surface area, among the three actives (pea LCO, pea CO, China CO)” value ([4]; seed treatment, 4 wks, FIG. 12)?
A: The value was “highest leaf surface area”.

Q: What about the “effect on alfalfa seed germination (conclusion)” value [5] of the same molecule?
A: Its value is “could positively impact”.

Q: And the “germination rate at 20 h among control, LCO and CO” value ([5]; dark, 22° C.)?
A: Its value is “no difference”.

Q: What about the “more germination over control and LCO at 27 h” value ([5]; dark, 22° C.) of the same molecule?
A: Its value is 6%.

Q: And the “cotton plant dry weight” value (Cotton seeds)?
A: The value was “no significant differences; also recorded: relatively higher”.

Q: What about the “total plant dry weight increase over control” value (Cotton seeds) of the same molecule?
A: The value was 3.29%.

Q: What about the seed germination (Green Mung seeds) of the same molecule?
A: The seed germination was “better germination”.

Q: And the “YIELD, Response Increase” value (corn [6])?
A: The value was 3.6 % of Control.

Q: What about the “YIELD, Mean (N = 10)” value (corn [6]; 1×10^−8 molar, 1 μg/acre, 3 fl oz per 50 pounds of seed) of the same molecule?
A: The value was 188.0 bu/A.

Q: What about the “less positive yield responses than LCO” value (corn [6]; amongst the ten trials) of the same molecule?
A: Its value is 10.0%.

Q: What about the “CO mean yield less than LCO” value (corn [6]; less) of the same molecule?
A: The value was 4.6 bu/A.

Q: What about the “less yield increase above the Control than LCO” value (corn [6]; less) of the same molecule?
A: The value was 2.5%.

Q: And the “YIELD, Response” value (corn [6]; over Control)?
A: The value was 6.5 bu/A.

Q: And the “Positive Yield Response” value (corn [6]; percent of the ten trials)?
A: Its value is 80.0%.
